In ChEMBL document CHEMBL1201862, “PubChem BioAssay data set” (2004):
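Results reflect a 48-hour exposure of cells in 96-well plates to compound at five concentrations. GI50 = concentration required for 50% inhibition of growth.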 Activity calls are given as the source filed them. No stated cut-off is given here; in the data, active = GI50 up to about 1.1 µM and inactive = higher.

How the values were obtained:
Assay in all cases: NCI-60 cell line screen, 48 h
[1] = system: 786-0
[2] = system: A498
[3] = system: ACHN
[4] = system: EKVX
[5] = system: HOP-62
[6] = system: LOX IMVI
[7] = system: MOLT-4
[8] = system: RXF 393
[9] = system: SF-295
[10] = system: SF-539
[11] = system: SK-MEL-28
[12] = system: SK-OV-3
[13] = system: SN12C
[14] = system: SNB-75
[15] = system: UACC-62
[16] = system: UO-31
[17] = system: HCC 2998
[18] = system: Hs-578T
[19] = system: SR

Measured: GI50

CN(/N=C\c1ccnc2ccccc12)c1ccccc1
inactive: [1] 18.5 µM | [2] 21 µM | [3] 31 µM | [4] 9.12 µM | [5] 28.1 µM | [6] 17.2 µM | [7] > 100 µM | [8] 30.2 µM | [9] 25.6 µM | [10] 25.7 µM | [11] 29.8 µM | [12] 31.2 µM | [13] 29.9 µM | [14] 32.5 µM | [15] 19.5 µM | [16] 25.1 µM

CCC/C(Cl)=N\OC(=O)Nc1ccc(F)c([N+](=O)[O-])c1
inactive: [1] 16.8 µM | [2] 21.5 µM | [3] 4.97 µM | [4] 16.2 µM | [17] 14.5 µM | [5] 18.4 µM | [6] 21.9 µM | [7] 3.41 µM | [9] 33.8 µM | [10] 24 µM | [11] 18 µM | [12] 24.6 µM | [13] 27.2 µM | [14] 17.6 µM | [15] 18.7 µM | [16] 13.7 µM

O=C(CCc1ccc(O)cc1)c1c(O)cc(O)cc1OC1OC(CO)C(O)C(O)C1O (stereo unspecified)
inactive: [1] > 100 µM | [2] > 100 µM | [3] > 100 µM | [4] > 100 µM | [17] > 100 µM | [5] > 100 µM | [18] > 100 µM | [6] > 100 µM | [9] > 100 µM | [10] > 100 µM | [11] > 100 µM | [12] > 100 µM | [14] > 100 µM | [15] > 100 µM | [16] > 100 µM

COCO[C@@H]1C[C@H]2C(=O)N(COC)c3ccccc3C(=O)N2C1
inactive: [1] > 100 µM | [2] > 100 µM | [3] > 100 µM | [4] > 100 µM | [5] > 100 µM | [18] > 100 µM | [6] > 100 µM | [7] > 100 µM | [8] > 100 µM | [9] > 100 µM | [10] > 100 µM | [11] > 100 µM | [12] > 100 µM | [13] > 100 µM | [14] > 100 µM | [15] > 100 µM | [16] > 100 µM

NC(=O)c1ccc(C(=O)Nc2ccc([As](=O)(O)O)cc2)cc1
inactive: [1] > 100 µM | [2] > 100 µM | [3] > 100 µM | [4] > 100 µM | [5] > 100 µM | [18] > 100 µM | [6] > 100 µM | [7] > 100 µM | [8] > 100 µM | [9] > 100 µM | [11] > 100 µM | [12] > 100 µM | [13] > 100 µM | [14] > 100 µM | [15] > 100 µM | [16] > 100 µM

CC1(C)CC(=O)c2c(nc3c(ccc4ccccc43)c2-c2ccc(NC(=O)CCCCC(=O)Nc3ccc(-c4c5c(nc6c4ccc4ccccc46)CC(C)(C)CC5=O)cc3)cc2)C1
inactive: [1] 42.2 µM | [3] 24 µM | [4] 21.2 µM | [5] 32.7 µM | [18] 32.1 µM | [6] 17.6 µM | [7] 13.7 µM | [8] 78.3 µM | [9] 19.6 µM | [10] 20.6 µM | [11] 34 µM | [12] 37.2 µM | [13] 33.1 µM | [14] 16.3 µM | [16] 19.5 µM

CC1=CC(=O)c2ccc3c4ccccc4n(C)c3c2C1=O
inactive: [1] 56 µM | [2] 83.6 µM | [3] 55.6 µM | [4] > 19.8 µM | [17] > 96.4 µM | [5] 24.9 µM | [18] 62.8 µM | [7] 19.4 µM | [8] 43.6 µM | [9] > 54.5 µM | [10] > 100 µM | [11] 60.7 µM | [12] > 100 µM | [13] > 69 µM | [14] 54.1 µM | [16] > 65.9 µM

Cc1nc2cc(F)c(F)cc2[nH]c1=O
inactive: [1] > 100 µM | [3] > 100 µM | [4] 67.1 µM | [17] > 100 µM | [5] > 100 µM | [18] 77.6 µM | [6] > 100 µM | [7] > 100 µM | [8] > 100 µM | [9] > 100 µM | [10] > 100 µM | [11] > 100 µM | [12] > 100 µM | [13] > 100 µM | [14] > 100 µM | [15] > 100 µM | [16] > 100 µM

O=C(NNC(=S)Nc1ccccc1)c1csc(NC(=S)NC2CCCCC2)n1
inactive: [1] 68.7 µM | [2] > 100 µM | [3] > 100 µM | [4] 20.1 µM | [17] 10.5 µM | [5] > 100 µM | [6] 26.6 µM | [7] 25.6 µM | [9] > 100 µM | [10] 77.4 µM | [12] > 100 µM | [13] 91.4 µM | [14] 47.1 µM | [19] 49.5 µM | [15] 38.9 µM | [16] 16.1 µM

NC(CCCCNC(=O)CNC(=O)OCc1ccccc1)C(=O)NC(CCCCNC(=O)CNC(=O)OCc1ccccc1)C(=O)NC(CCCCNC(=O)CNC(=O)OCc1ccccc1)C(=O)NC(CCCCNC(=O)CNC(=O)OCc1ccccc1)C(=O)NC(CCCCNC(=O)CNC(=O)OCc1ccccc1)C(=O)NC(CCCCNC(=O)CNC(=O)OCc1ccccc1)C(=O)O (stereo unspecified)
inactive: [1] > 75 µM | [2] > 75 µM | [3] > 75 µM | [17] > 75 µM | [5] > 75 µM | [6] > 75 µM | [7] > 75 µM | [11] > 75 µM | [13] > 75 µM | [14] > 75 µM | [19] > 75 µM | [15] > 75 µM | [16] > 75 µM

Cn1cnc([N+](=O)[O-])c1Sc1nnnn1C
inactive: [1] 17.6 µM | [2] 65.6 µM | [3] 16.2 µM | [4] 18.3 µM | [17] 23.6 µM | [5] > 100 µM | [6] 13.4 µM | [7] 9.12 µM | [9] > 100 µM | [10] 18.2 µM | [11] 14.3 µM | [12] > 100 µM | [13] 16.3 µM | [14] 25.3 µM | [19] 11.4 µM | [15] 17.1 µM | [16] 15.3 µM

Nc1nc(Cl)cc(NCC2(CO)CC=CC2)n1
inactive: [1] > 100 µM | [3] > 100 µM | [4] 71 µM | [17] > 100 µM | [5] > 100 µM | [18] > 100 µM | [6] > 100 µM | [7] > 100 µM | [8] 33.1 µM | [9] > 100 µM | [10] > 100 µM | [11] > 100 µM | [12] > 100 µM | [13] > 100 µM | [14] > 100 µM | [15] > 100 µM | [16] > 100 µM
